Measurements reported in patent US7214686B2, “Pharmaceutical compositions and methods for effecting dopamine release” (priority 1997, dated 2007).
Where two headings read alike, the source gives them in different places.

Tests used:
[1] = system: striatal synaptosomes (dopamine release); assay: cells; type: cell-based, rat; settings: for EC50: read-out: Dopamine Release EC50
[2] = target: T1, rat ganglionic nAChR subtype (PC12 cells) (Rattus norvegicus, UniProt P04757+P12392); assay: cell-based; type: cell-based
T1 construct: These cells express ganglion-like nAChRs; endogenous in cells; host or cells: PC12 (rat pheochromocytoma)
T1 sequence (P04757 26-499): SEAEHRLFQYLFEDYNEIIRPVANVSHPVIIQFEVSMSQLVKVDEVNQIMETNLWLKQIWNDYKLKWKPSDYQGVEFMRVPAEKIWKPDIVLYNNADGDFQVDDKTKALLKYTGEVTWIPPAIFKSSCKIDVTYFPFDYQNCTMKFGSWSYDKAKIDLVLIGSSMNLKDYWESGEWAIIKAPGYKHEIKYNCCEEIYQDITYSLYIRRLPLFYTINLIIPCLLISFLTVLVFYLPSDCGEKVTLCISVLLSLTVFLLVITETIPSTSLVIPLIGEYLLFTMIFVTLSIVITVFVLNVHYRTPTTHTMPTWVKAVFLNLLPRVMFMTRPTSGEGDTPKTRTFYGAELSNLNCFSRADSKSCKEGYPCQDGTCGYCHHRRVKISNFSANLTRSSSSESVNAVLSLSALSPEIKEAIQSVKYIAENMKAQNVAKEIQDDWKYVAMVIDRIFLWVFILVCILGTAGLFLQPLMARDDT
T1 sequence (P12392 21-495): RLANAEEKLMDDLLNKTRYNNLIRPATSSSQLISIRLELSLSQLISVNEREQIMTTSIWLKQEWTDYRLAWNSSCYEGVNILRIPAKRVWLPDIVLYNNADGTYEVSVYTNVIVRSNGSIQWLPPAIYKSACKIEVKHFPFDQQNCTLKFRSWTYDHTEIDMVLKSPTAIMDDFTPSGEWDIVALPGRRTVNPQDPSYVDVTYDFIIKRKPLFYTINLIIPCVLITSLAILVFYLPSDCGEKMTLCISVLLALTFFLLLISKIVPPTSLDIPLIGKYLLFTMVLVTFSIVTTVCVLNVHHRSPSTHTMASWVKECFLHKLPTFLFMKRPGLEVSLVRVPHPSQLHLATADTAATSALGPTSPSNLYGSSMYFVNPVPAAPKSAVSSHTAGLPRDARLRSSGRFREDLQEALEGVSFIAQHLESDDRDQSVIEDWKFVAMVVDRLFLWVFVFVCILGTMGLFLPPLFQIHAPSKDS
Protocol: Activation of rat ganglion nAChRs was established on the pheochromocytoma clonal line PC12, which is a continuous clonal cell line of neural crest origin, derived from a tumor of the rat adrenal medulla.
(§1) Cells were cultured in Dulbecco's modified Eagle's medium (Gibco/BRL) with 10% horse serum (Gibco/BRL), 5% fetal bovine serum (HyClone, Logan Utah), 1 mM sodium pyruvate, 4 mM L-Glutamine, and 50,000 units penicillin-streptomycin (Irvine Scientific). When cells were 80% confluent, they were plated to 6 well Nunc plates (Nunclon) and coated with 0.03% poly-L-lysine (Sigma, dissolved in 100 mM boric acid). Experiments were conducted when the cells reached 80% confluency.
(§2) On the day of the experiment, growth media was gently removed from the well and growth media containing ^86Rubidium chloride (10^6 μCi/mL) was added to each well. Cells were incubated at 37° C. for a minimum of 3 h. […] Next, cells were exposed to either 100 μM of test compound, 100 μM of nicotine or buffer alone for 4 min. Following the exposure period, the supernatant containing the released ^86Rb^+ was removed and transferred to scintillation vials. Scintillation fluid was added and released radioactivity was measured by liquid scintillation counting.
Within each assay, each point had 2 replicates, which were averaged. The amount of ^86Rb^+ release was compared to both a positive control (100 μM nicotine) and a negative control (buffer alone) to determine the percent release relative to that of L-nicotine.
(§3) When appropriate, dose-response curves of test compound were determined. The maximal activation for individual compounds (Emax) was determined as a percentage of the maximal activation induced by L-nicotine. The compound concentration resulting in half maximal activation (EC50) of specific ion flux was also determined.

[3] = target: T2, human muscle nAChR subtype (TE671/RD cells) (Homo sapiens, UniProt P02708+P07510+Q07001); assay: cell-based; type: cell-based; settings: for Muscle Effect Ecmax: maximal activation as a percentage of that induced by L-nicotine
T2 construct: These cells express receptors that have pharmacological; endogenous in cells; host or cells: TE671/RD (human embryonal rhabdomyosarcoma)
T2 sequence (P02708 21-457): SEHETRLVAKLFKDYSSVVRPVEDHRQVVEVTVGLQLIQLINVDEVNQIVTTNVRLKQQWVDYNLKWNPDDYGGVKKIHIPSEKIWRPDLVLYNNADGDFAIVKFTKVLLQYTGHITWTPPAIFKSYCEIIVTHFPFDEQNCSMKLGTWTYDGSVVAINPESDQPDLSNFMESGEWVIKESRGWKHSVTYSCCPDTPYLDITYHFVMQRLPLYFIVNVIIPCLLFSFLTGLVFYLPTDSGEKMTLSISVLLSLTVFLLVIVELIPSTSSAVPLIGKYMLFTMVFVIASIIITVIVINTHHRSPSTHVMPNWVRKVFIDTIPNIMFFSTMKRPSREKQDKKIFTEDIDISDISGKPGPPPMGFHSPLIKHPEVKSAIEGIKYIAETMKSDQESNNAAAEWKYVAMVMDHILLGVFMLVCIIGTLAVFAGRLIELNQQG
T2 sequence (P11230 24-501 partner): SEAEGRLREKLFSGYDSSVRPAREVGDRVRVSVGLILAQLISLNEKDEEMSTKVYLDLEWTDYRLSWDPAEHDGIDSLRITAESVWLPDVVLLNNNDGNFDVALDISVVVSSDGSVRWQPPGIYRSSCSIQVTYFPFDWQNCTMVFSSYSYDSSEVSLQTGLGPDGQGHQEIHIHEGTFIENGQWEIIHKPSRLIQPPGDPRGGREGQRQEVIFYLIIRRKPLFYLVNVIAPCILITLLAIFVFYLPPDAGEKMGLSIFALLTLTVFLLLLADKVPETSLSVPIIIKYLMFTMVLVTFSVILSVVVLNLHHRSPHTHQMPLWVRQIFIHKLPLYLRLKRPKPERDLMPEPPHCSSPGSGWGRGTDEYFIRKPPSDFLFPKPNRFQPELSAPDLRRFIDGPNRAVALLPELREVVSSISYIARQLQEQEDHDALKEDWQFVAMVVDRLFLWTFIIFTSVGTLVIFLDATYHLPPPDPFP
T2 sequence (Q07001 22-517): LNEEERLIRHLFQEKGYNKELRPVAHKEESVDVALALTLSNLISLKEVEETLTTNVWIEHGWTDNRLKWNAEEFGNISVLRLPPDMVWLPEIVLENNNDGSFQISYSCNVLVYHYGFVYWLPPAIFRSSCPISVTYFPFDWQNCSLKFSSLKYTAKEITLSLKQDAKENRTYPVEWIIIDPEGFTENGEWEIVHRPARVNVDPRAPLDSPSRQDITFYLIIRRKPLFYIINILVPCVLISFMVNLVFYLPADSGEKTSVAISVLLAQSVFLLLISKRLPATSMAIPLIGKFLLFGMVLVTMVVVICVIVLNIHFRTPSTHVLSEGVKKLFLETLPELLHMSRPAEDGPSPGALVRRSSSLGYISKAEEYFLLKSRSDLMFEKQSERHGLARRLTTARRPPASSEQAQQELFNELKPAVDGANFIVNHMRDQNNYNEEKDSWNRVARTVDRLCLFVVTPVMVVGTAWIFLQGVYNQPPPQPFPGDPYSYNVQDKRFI
T2 sequence (P07510 23-517): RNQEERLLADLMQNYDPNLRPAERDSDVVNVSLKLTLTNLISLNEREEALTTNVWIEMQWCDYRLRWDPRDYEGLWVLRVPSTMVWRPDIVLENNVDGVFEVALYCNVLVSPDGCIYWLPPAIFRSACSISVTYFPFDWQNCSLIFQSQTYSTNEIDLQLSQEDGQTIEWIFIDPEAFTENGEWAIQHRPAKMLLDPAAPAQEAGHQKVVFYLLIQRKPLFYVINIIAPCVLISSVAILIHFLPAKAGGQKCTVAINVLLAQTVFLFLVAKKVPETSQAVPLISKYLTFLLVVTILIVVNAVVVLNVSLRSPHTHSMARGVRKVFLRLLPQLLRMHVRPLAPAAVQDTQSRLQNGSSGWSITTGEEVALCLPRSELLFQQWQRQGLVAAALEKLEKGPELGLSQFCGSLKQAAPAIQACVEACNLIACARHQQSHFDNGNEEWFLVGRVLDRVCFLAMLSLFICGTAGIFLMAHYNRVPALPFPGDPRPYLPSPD
Protocol: as §1, with “well polystyrene” for “well Nunc”, “plates (Costar).” for “plates (Nunclon) and coated with 0.03% poly-L-lysine (Sigma, dissolved in 100 mM boric acid).”, “reached 100%” for “reached 80%”
as §2, with “L-nicotine (Acros Organics)” for “nicotine”
Within each assay, each point had 2 replicates, which were averaged. The amount of ^86Rb^+ release was compared to both a positive control (100 μM L-nicotine) and a negative control (buffer alone) to determine the percent release relative to that of L-nicotine.
as §3

[4] = physchem
[5] = target: T3, α4β2 nAChR subtype (Rattus norvegicus, UniProt P09483+P12390); assay: biochemical; settings: inhibition of [3H]nicotine binding, rat cerebral cortex membranes
T3 construct: The cerebral cortex was removed and placed in 20 volumes (weight:volume) of ice-old preparative buffer; from tissue; host or cells: rat cerebral cortex membranes
T3 sequence (P09483 31-630): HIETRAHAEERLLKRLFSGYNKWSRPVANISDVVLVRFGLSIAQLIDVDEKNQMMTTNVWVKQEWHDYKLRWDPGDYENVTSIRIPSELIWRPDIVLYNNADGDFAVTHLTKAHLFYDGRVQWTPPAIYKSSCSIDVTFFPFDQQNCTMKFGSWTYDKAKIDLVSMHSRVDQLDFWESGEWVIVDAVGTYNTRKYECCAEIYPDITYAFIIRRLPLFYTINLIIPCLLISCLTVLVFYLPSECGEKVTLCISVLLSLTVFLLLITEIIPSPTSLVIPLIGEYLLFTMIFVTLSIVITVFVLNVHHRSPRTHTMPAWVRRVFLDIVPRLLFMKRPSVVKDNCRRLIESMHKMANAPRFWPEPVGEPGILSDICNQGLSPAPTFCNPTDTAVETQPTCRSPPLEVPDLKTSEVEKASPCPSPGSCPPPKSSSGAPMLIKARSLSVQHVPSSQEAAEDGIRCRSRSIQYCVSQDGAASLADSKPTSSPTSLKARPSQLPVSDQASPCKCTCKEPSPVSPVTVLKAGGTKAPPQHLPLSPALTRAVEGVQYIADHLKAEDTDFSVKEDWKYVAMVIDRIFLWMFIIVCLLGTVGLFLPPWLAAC
T3 sequence (P12390 25-500): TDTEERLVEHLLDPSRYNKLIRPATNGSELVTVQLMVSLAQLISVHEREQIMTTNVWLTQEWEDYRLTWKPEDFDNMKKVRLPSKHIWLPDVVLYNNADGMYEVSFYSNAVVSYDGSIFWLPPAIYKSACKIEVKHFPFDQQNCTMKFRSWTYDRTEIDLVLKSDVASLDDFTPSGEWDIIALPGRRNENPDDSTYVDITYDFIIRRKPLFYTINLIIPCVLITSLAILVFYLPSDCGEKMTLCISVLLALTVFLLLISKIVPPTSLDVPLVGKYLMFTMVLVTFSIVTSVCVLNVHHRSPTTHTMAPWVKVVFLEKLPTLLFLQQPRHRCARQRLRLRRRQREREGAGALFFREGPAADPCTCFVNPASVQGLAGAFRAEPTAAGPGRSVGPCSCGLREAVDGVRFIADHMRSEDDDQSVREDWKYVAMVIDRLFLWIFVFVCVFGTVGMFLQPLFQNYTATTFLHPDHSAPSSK

[6] = maximal activation as a percentage of that induced by L-nicotine
[7] = rat striatal synaptosomes, [3H]dopamine release
[8] = 86Rb+ efflux, read-out: Ganglion Effect EC50

SMILES	Dopamine Release Ecmax [1, 6]	EC50 [1, 7]	EC50 [2, 8]	Ganglion Effect Ecmax [2, 6]	EC50 ([3]; 86Rb+ efflux, TE671/RD cells, read-out: Muscle Effect EC50)	Muscle Effect Ecmax [3]	logP [4]	EC50 ([1]; Rattus norvegicus)	EC50 [2]	EC50 [3]	Dopamine Release Ecmax [1]	Ganglion Effect Ecmax [2]	Ki [5]	amounts causing effects upon ganglia relative to those required to cause dopamine release ([2]; ganglia effects vs dopamine release)	amounts causing muscle effects relative to those required to cause dopamine release ([3]; muscle effects vs dopamine release)
c1cncc(C2CC3CCN2CC3)c1 (racemic) [Sample No. 1, (+/−)-2-(3-pyridyl)-1-azabicyclo[2.2.2]octane]	40	0.002 µM	1.1 µM	85	0.059 µM	110	1.26	–	–	–	–	–	–	–	–
Brc1cncc(C2CC3CCN2CC3)c1 (racemic) [Sample No. 2, (+/−)-2-(5-bromo-3-pyridyl)-1-azabicyclo[2.2.2]octane]	43	–	–	106	–	133	2.05	0.002 µM	3 µM	3 µM	–	–	–	–	–
c1cncc([C@H]2C[C@@H]3CCN2C3)c1 (relative stereo) [Sample No. 3, exo 2-(3-pyridyl)-1-azabicyclo[2.2.1]heptane]	130	–	–	100	–	130	0.94	0.006 µM	0.15 µM	–	–	–	–	–	–
c1cncc([C@@H]2C[C@@H]3CCN2C3)c1 (relative stereo) [Sample No. 4, endo-2-(3-pyridyl)-1-azabicyclo[2.2.1]heptane]	114	–	–	100	–	130	0.94	0.033 µM	0.15 µM	–	–	–	–	–	–
CN1CCC[C@H]1c1cccnc1 [C-1, (S)-(−)-nicotine, reference compound]	–	–	–	–	–	–	–	–	–	–	100	100	–	–	–
c1cncc(C2C3CCN2CC3)c1 (stereo not drawn) [Sample No. 5, 7-(3-pyridyl)-1-azabicyclo[2.2.1]heptane]	93	–	–	120	–	130	0.93	0.004 µM	–	–	–	–	0.007 µM	–	–
Cl.Cl.Cl.Nc1cncc(C2CC3CCN2CC3)c1 (stereo not drawn) [Sample No. 6, 2-(5-amino-3-pyridyl)-1-azabicyclo[2.2.2]octane trihydrochloride]	43	0.007 µM	10 µM	75	–	100	0.48	–	–	–	–	–	0.0026 µM	many times	many times
CCOc1cncc(C2CC3CCN2CC3)c1.Cl.Cl (stereo not drawn) [Sample No. 7, 2-(5-ethoxy-3-pyridyl)-1-azabicyclo[2.2.2]octane dihydrochloride]	40	–	–	86	–	137	1.82	0.005 µM	10 µM	–	–	–	–	–	–
CC(C)Oc1cncc(C2CC3CCN2CC3)c1.Cl.Cl (stereo not drawn) [Sample No. 8, 2-(5-isopropoxy-3-pyridyl)-1-azabicyclo[2.2.2]octane dihydrochloride]	–	–	–	94	–	–	1.76	–	–	–	–	–	–	–	–
